Like-named read-outs stand apart in the source and are kept apart here.
Key:
[1] = test system: 304 E. coli clinical isolates; format: cell-based, Escherichia coli
Description: (§1) Phage cocktail CK618 was tested in combination with and alongside antibiotics against two isolate panels. The first assay used a panel of 88 contemporaneous urinary tract infection (UTI) isolates from North America, Europe, Latin America, and Asia. […] The second assay used a panel made up of a 300-strain clinical isolate panel (Table 14) with an additional 4 strains of interest. […] Four of the same SOC antibiotics tested against the 88-isolate panel were tested against this panel. The non-SOC antibiotics were not included due to their limited use in clinical settings, and nitrofurantoin was not included due to the low probability of resistance to this drug.
(§2) For both isolate panels, antibiotic concentrations tested were determined by using Clinical and Laboratory Standards Institute (CLSI) or European Committee on Antimicrobial Susceptibility Testing (EUCAST) breakpoints at concentrations that kill susceptible isolates but allow intermediate or resistant isolates to grow in the standard AST microdilution assay (Table 17).
(§3) The composition of the proposed Phase 2 CRISPR-enhanced bacteriophage (CRISPR-phage, hereafter termed ‘crPhage’) cocktail (CK618) has been updated from the CK570 to include six bacteriophages as compared to three bacteriophages in CK570. Bacteriophage cocktail CK618, was prepared such that all bacteriophages had equivalent titers in the final cocktail. The cocktail was then mixed with bacteria to obtain final titers of 1×10^6 plaque-forming unit (PFU)/mL/phage for the cocktail and 1×10^5 colony-forming unit (CFU)/mL for the bacteria, resulting in a multiplicity of infection (MOI) of 10 for each bacteriophage in a sample. Briefly, 5 μl of each sample (CK618 alone, CK618 and antibiotics, antibiotics alone, or medium alone) was added to 5 μl of optical density (OD)-normalized bacterial isolate and 40 μl LB medium. Reactions were incubated at 37° C. with shaking and OD measurements were taken each hour for 20 hours.
(§4) Host range percentage is the percent of isolates that responded to treatment of antibiotics or CK618. In the case of the 88-isolate panel, results were analyzed on the complete panel as well as the subset of classified as multidrug-resistant (MDR) (n=21) and beta-lactam-resistant (n=31).
(§5) The first assay used a panel of 88 contemporaneous isolates. Twenty-one of those strains are classified as MDR, with resistance to 3 or more antibiotic classes. […] The second assay used the panel made up of a 300-strain clinical isolate panel with an additional 4 strains of interest.
(§6) Antibiotic concentrations tested were determined by using CLSI or EUCAST breakpoints at concentrations that kill susceptible strains but allow intermediate or resistant strains to grow in the standard AST microdilution assay (Table 27). LBP-EC01 v.2 was combined with bacteria resulting in a MO of 10 for each bacteriophage in a sample. In the case of the 88-isolate panel, results were analyzed on the complete panel as well as the subset of isolates classified as multidrug-resistant (MDR) (n=21) and beta-lactam-resistant (n=31).

[2] = test system: 88 urinary tract infection E. coli isolates; format: cell-based, Escherichia coli; settings: for Host Range % on MDR Subset (n = 21), Combination: Antibiotic + LBP-EC01 v.2 / Host Range % on all Strains (n = 88), Combination: Antibiotic + LBP-EC01 v.2 / Host Range % on Beta-lactam-Resistant Subset (n = 31), Combination: Antibiotic + LBP-EC01 v.2: antibiotic combined with LBP-EC01 v.2; for Host Range % on all Strains (n = 88), Combination: Antibiotic + CK618 v.2: antibiotic at breakpoint concentration plus cocktail 1 × 10^6 PFU/ml per bacteriophage
Description: as §1, §2, §3, §4, §5, §6

[3] = 304-isolate panel, antibiotic combined with LBP-EC01 v.2
[4] = 304-isolate panel, all strains, single agent
[5] = 304-isolate panel, beta-lactam-resistant subset, antibiotic combined with LBP-EC01 v.2
[6] = 304-isolate panel, beta-lactam-resistant subset, single agent
[7] = 88-isolate panel, MDR subset, single agent
[8] = 88-isolate panel, all strains, single agent
[9] = 88-isolate panel, beta-lactam-resistant subset
[10] = 88-isolate panel, beta-lactam-resistant subset, single agent
[11] = antibiotic at breakpoint concentration (Table 17), cocktail 1 × 10^6 PFU/ml per bacteriophage, MOI 10
[12] = 88-isolate panel, listed as Fosfomycin 8
[13] = 88-isolate panel, listed as Fosfomycin 64

CC1=C(C(=O)O)N2C(=O)[C@@H](NC(=O)[C@H](N)c3ccccc3)[C@H]2SC1 [Cephalexin]
Host range % on MDR subset (n = 93), Combination: Antibiotic + LBP-CK618 ([1]; 304-isolate panel): 79.6%
Host range % on MDR subset (n = 93), Single agent treatment ([1]; 304-isolate panel): 24.7%
Host range % on beta-lactam-resistant subset (n = 91), Combination: Antibiotic + LBP-CK618 ([1]; 304-isolate panel): 79.1%
Host range % on beta-lactam-resistant subset (n = 91), Single agent treatment ([1]; 304-isolate panel): 8.8%
Host Range % on MDR Subset (n = 93), Combination Antibiotic + LBP-EC01 v.2 [1, 3]: 79.6%
Host Range % on all Strains (n = 304), Single agent treatment [1, 4]: 57.6%
Host Range % on Beta-lactam-Resistant Subset (n = 91), Combination: Antibiotic + LBP-EC01 v.2 [1, 5]: 79.1%
Host range % on beta-lactam-resistant subset (n = 91), Single agent treatment [1, 6]: 8.8%
Host Range % on Beta-lactam-Resistant Subset (n = 31), Combination: Antibiotic + CK618 v.2 ([2]; 88-isolate panel): 81.7%
Host Range % on Beta-lactam-Resistant Subset (n = 31), Single agent treatment ([2]; 88-isolate panel): 11.8%
Host Range % on MDR Subset (n = 21), Combination: Antibiotic + CK618 v.2 ([2]; 88-isolate panel): 76.2%
Host Range % on MDR Subset (n = 21), Single agent treatment ([2]; 88-isolate panel): 14.3%
Host Range % on MDR Subset (n = 21), Combination: Antibiotic + LBP-EC01 v.2 ([2]; 88-isolate panel, MDR subset): 76.2%
Host Range % on MDR Subset (n = 21), Single agent treatment [2, 7]: 14.3%
Host Range % on all Strains (n = 88), Combination: Antibiotic + LBP-EC01 v.2 ([2]; 88-isolate panel, all strains): 87.9%
Host Range % on all Strains (n = 88), Single agent treatment [2, 8]: 49.2%
Host Range % on Beta-lactam-Resistant Subset (n = 31), Combination: Antibiotic + LBP-EC01 v.2 [2, 9]: 81.7%
Host Range % on Beta-lactam-Resistant Subset (n = 31), Single agent treatment [2, 10]: 11.8%
Host Range % on all Strains (n = 88), Single agent treatment [2, 11]: 49.2%
Host Range % on all Strains (n = 88), Combination: Antibiotic + CK618 v.2 [2]: 87.9%

C[C@@H]1O[C@@H]1P(=O)(O)O [Fosfomycin]
host range performance compared with antibiotics / combination (in words) ([1]; 88- and 304-isolate panels, all, MDR and beta-lactam-resistant strains): strong activity across all strains
Host range % on MDR subset (n = 93), Combination: Antibiotic + LBP-CK618 ([1]; 304-isolate panel): 96.8%
Host range % on MDR subset (n = 93), Single agent treatment ([1]; 304-isolate panel): 83.9%
Host range % on beta-lactam-resistant subset (n = 91), Combination: Antibiotic + LBP-CK618 ([1]; 304-isolate panel): 96.7%
Host range % on beta-lactam-resistant subset (n = 91), Single agent treatment ([1]; 304-isolate panel): 86.8%
Host Range % on MDR Subset (n = 93), Combination Antibiotic + LBP-EC01 v.2 [1, 3]: 96.8%
Host Range % on all Strains (n = 304), Combination: Antibiotic + LBP-EC01 v.2 ([1]; 304-isolate panel, all strains, antibiotic combined with LBP-EC01 v.2): 97.0%
Host Range % on all Strains (n = 304), Single agent treatment [1, 4]: 87.5%
Host Range % on Beta-lactam-Resistant Subset (n = 91), Combination: Antibiotic + LBP-EC01 v.2 [1, 5]: 96.7%
Host range % on beta-lactam-resistant subset (n = 91), Single agent treatment [1, 6]: 86.8%
Host Range % on MDR Subset (n = 21), Combination: Antibiotic + LBP-EC01 v.2 ([2]; 88-isolate panel, MDR subset, listed as Fosfomycin 8): 95.2%
Host Range % on MDR Subset (n = 21), Combination: Antibiotic + LBP-EC01 v.2 ([2]; 88-isolate panel, MDR subset, listed as Fosfomycin 64): 100.0%
Host Range % on MDR Subset (n = 21), Single agent treatment ([2]; 88-isolate panel, MDR subset, single agent, listed as Fosfomycin 8): 90.5%
Host Range % on MDR Subset (n = 21), Single agent treatment ([2]; 88-isolate panel, MDR subset, single agent, listed as Fosfomycin 64): 96.8%
Host Range % on all Strains (n = 88), Combination: Antibiotic + LBP-EC01 v.2 ([2]; 88-isolate panel, all strains, listed as Fosfomycin 8): 93.9%
Host Range % on all Strains (n = 88), Combination: Antibiotic + LBP-EC01 v.2 ([2]; 88-isolate panel, all strains, listed as Fosfomycin 64): 98.5%
Host Range % on all Strains (n = 88), Single agent treatment ([2]; 88-isolate panel, all strains, single agent, listed as Fosfomycin 8): 85.2%
Host Range % on all Strains (n = 88), Single agent treatment ([2]; 88-isolate panel, all strains, single agent, listed as Fosfomycin 64): 93.2%
Host Range % on Beta-lactam-Resistant Subset (n = 31), Combination: Antibiotic + LBP-EC01 v.2 ([2]; 88-isolate panel, beta-lactam-resistant subset, listed as Fosfomycin 8): 94.6%
Host Range % on Beta-lactam-Resistant Subset (n = 31), Combination: Antibiotic + LBP-EC01 v.2 ([2]; 88-isolate panel, beta-lactam-resistant subset, listed as Fosfomycin 64): 100.0%
Host Range % on Beta-lactam-Resistant Subset (n = 31), Single agent treatment ([2]; 88-isolate panel, beta-lactam-resistant subset, single agent, listed as Fosfomycin 8): 87.1%
Host Range % on Beta-lactam-Resistant Subset (n = 31), Single agent treatment ([2]; 88-isolate panel, beta-lactam-resistant subset, single agent, listed as Fosfomycin 64): 95.7%
Host Range % on Beta-lactam-Resistant Subset (n = 31), Combination: Antibiotic + CK618 v.2 [2, 12]: 94.6%
Host Range % on Beta-lactam-Resistant Subset (n = 31), Single agent treatment [2, 12]: 87.1%
Host Range % on MDR Subset (n = 21), Combination: Antibiotic + CK618 v.2 [2, 12]: 95.2%
Host Range % on MDR Subset (n = 21), Single agent treatment [2, 12]: 90.5%
Host Range % on Beta-lactam-Resistant Subset (n = 31), Combination: Antibiotic + CK618 v.2 [2, 13]: 100.0%
Host Range % on Beta-lactam-Resistant Subset (n = 31), Single agent treatment [2, 13]: 95.7%
Host Range % on MDR Subset (n = 21), Combination: Antibiotic + CK618 v.2 [2, 13]: 100.0%
Host Range % on MDR Subset (n = 21), Single agent treatment [2, 13]: 96.8%
Host Range % on all Strains (n = 88), Single agent treatment ([2]; antibiotic at breakpoint concentration (Table 17), cocktail 1 × 10^6 PFU/ml per bacteriophage, MOI 10, listed as Fosfomycin 8): 85.2%
Host Range % on all Strains (n = 88), Single agent treatment ([2]; antibiotic at breakpoint concentration (Table 17), cocktail 1 × 10^6 PFU/ml per bacteriophage, MOI 10, listed as Fosfomycin 64): 93.2%
Host Range % on all Strains (n = 88), Combination: Antibiotic + CK618 v.2 ([2]; listed as Fosfomycin 8): 93.9%
Host Range % on all Strains (n = 88), Combination: Antibiotic + CK618 v.2 ([2]; listed as Fosfomycin 64): 98.5%

O=C1CN(/N=C/c2ccc([N+](=O)[O-])o2)C(=O)N1 [Nitrofurantoin]
Host Range % on Beta-lactam-Resistant Subset (n = 31), Combination: Antibiotic + CK618 v.2 ([2]; 88-isolate panel): 97.8%
Host Range % on Beta-lactam-Resistant Subset (n = 31), Single agent treatment ([2]; 88-isolate panel): 90.3%
Host Range % on MDR Subset (n = 21), Combination: Antibiotic + CK618 v.2 ([2]; 88-isolate panel): 98.4%
Host Range % on MDR Subset (n = 21), Single agent treatment ([2]; 88-isolate panel): 85.7%
Host Range % on MDR Subset (n = 21), Combination: Antibiotic + LBP-EC01 v.2 ([2]; 88-isolate panel, MDR subset): 98.4%
Host Range % on MDR Subset (n = 21), Single agent treatment [2, 7]: 85.7%
Host Range % on all Strains (n = 88), Combination: Antibiotic + LBP-EC01 v.2 ([2]; 88-isolate panel, all strains): 93.9%
Host Range % on all Strains (n = 88), Single agent treatment [2, 8]: 83.0%
Host Range % on Beta-lactam-Resistant Subset (n = 31), Combination: Antibiotic + LBP-EC01 v.2 [2, 9]: 97.8%
Host Range % on Beta-lactam-Resistant Subset (n = 31), Single agent treatment [2, 10]: 90.3%
Host Range % on all Strains (n = 88), Single agent treatment [2, 11]: 83.0%
Host Range % on all Strains (n = 88), Combination: Antibiotic + CK618 v.2 [2]: 93.9%

Source: patent US20250345378A1 (priority 2022, published 2025)
